{
  "source": "patent US12139520B2",
  "about": "(priority 2020, dated 2024)",
  "key": {"[1]": {"assay": "Physical stability of peptide analogues (Thioflavin T fibrillation)", "type": "physicochemical", "conditions": "maximum ThT signal normalized between hAMY maximum and buffer background; 40° C., shaking, four days; pH 7 per table title", "procedure,_shortened": "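1 h in 50 mM NaOAc pH 4 / 50 mM NaPi pH 7; + ThT 4 μM final; 40 °C, 700 rpm linear shake 5 min pre-read; ex 450, em 480 nm q10 min × 4 d; LOESS smoothing; max signal normalised to hAMY max vs buffer blank.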"}, "[2]": {"molecular_target": "T1, hAMY3 receptor (Homo sapiens, UniProt O60896+P30988)", "T1 sequence (P30988 25-474)": "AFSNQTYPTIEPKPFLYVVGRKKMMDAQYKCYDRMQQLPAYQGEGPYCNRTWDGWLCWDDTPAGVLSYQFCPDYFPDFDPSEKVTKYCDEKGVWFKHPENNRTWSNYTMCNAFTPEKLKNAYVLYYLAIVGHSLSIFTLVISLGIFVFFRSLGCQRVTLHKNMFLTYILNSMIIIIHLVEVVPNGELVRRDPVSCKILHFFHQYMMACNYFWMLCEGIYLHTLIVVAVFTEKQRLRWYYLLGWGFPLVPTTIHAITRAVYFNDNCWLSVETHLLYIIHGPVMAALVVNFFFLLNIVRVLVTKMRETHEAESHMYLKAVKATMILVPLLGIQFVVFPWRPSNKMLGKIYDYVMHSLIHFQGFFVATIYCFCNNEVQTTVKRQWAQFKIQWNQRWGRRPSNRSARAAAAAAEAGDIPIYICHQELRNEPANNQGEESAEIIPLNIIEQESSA", "T1 sequence (O60896 24-148 partner)": "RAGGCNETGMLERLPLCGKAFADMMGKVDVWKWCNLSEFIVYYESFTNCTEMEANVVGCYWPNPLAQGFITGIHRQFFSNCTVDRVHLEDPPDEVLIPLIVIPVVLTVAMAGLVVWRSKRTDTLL", "assay": "cAMP assay for in vitro receptor activation, hAMY3-R", "type": "cell-based", "conditions": "cAMP assay, hAMY3 receptor; read-out: hAMY3R EC50", "procedure,_shortened": "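Thawed cells from a sub-cloned monoclonal hAMY3-overexpressing line are plated in DPBS containing 0.05% casein and 0.5 mM IBMX. Test compounds are added immediately at graded doses for 30 min at room temperature. Reagents for cAMP detection are then added, and TR-FRET is recorded after one hour.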"}},
  "note": "Bridge positions count the residues as written; N and C are the ends. Peptide text beside a SMILES is read from it.",
  "data": [
    {"smiles": "CC[C@H](C)[C@H](NC(=O)[C@H](CCC(N)=O)NC(=O)[C@H](Cc1c[nH]cn1)NC(=O)[C@H](C)NC(=O)[C@H](CC(C)C)NC(=O)[C@H](CCCNC(=N)N)NC(=O)[C@H](CCC(N)=O)NC(=O)[C@@H](NC(=O)[C@@H](NC(=O)[C@@H]1CSSC[C@H](NC(=O)CN)C(=O)N[C@@H](CCCNC(=N)N)C(=O)N[C@@H](Cc2ccccc2)C(=O)NCC(=O)N[C@@H]([C@@H](C)O)C(=O)N1)[C@@H](C)O)C(C)C)C(=O)N[C@@H](Cc1ccc(O)cc1)C(=O)N[C@@H](CCC(N)=O)C(=O)N[C@@H](Cc1ccccc1)C(=O)N[C@H](C(=O)N[C@@H](CC(=O)O)C(=O)N[C@@H](CCCCN)C(=O)N[C@@H](CC(=O)O)C(=O)N[C@@H](CCCCN)C(=O)N[C@@H](CC(=O)O)C(=O)N[C@@H](CC(N)=O)C(=O)N[C@H](C(=O)N[C@@H](C)C(=O)N1CCC[C@H]1C(=O)N[C@@H](CCCNC(=N)N)C(=O)N[C@@H](CO)C(=O)N[C@@H](CC(N)=O)C(=O)N[C@H](C(=O)N[C@@H](CO)C(=O)N1CCC[C@H]1C(=O)N[C@@H](CCC(N)=O)C(=O)NCC(=O)N[C@@H](Cc1ccc(O)cc1)C(N)=O)[C@@H](C)CC)C(C)C)[C@@H](C)O", "note": "[compound 182] (H-GCRFGTCTVQRLAHQIYQFTDKDKDNVAPRSNISPQGY-NH2; disulfide 2-7; N-terminus assumed)", "values": [
      {"measurement": "Max ThT signal (%)", "setting": "[1]", "value": 15.600, "unit": "%"},
      {"measurement": "EC50", "setting": "[2]", "value": 85, "unit": "pM"}
    ]},
    {"smiles": "CC[C@H](C)[C@H](NC(=O)[C@H](CCC(N)=O)NC(=O)[C@H](Cc1c[nH]cn1)NC(=O)[C@H](C)NC(=O)[C@H](CC(C)C)NC(=O)[C@H](CCCNC(=N)N)NC(=O)[C@H](CCC(N)=O)NC(=O)[C@@H](NC(=O)[C@@H](NC(=O)[C@@H]1CSSC[C@H](NC(=O)CN)C(=O)N[C@@H](CCCNC(=N)N)C(=O)N[C@@H]([C@@H](C)O)C(=O)NCC(=O)N[C@@H]([C@@H](C)O)C(=O)N1)[C@@H](C)O)C(C)C)C(=O)N[C@@H](Cc1ccc(O)cc1)C(=O)N[C@@H](CCC(N)=O)C(=O)N[C@@H](Cc1ccccc1)C(=O)N[C@H](C(=O)N[C@@H](CC(=O)O)C(=O)N[C@@H](CCCCN)C(=O)N[C@@H](Cc1ccccc1)C(=O)N[C@@H](CCCCN)C(=O)N[C@@H](CC(=O)O)C(=O)N[C@@H](CC(N)=O)C(=O)N[C@H](C(=O)N[C@@H](C)C(=O)N1CCC[C@H]1C(=O)N[C@@H](CCCNC(=N)N)C(=O)N[C@@H](CO)C(=O)N[C@@H](CCCCN)C(=O)N[C@H](C(=O)N[C@@H](CO)C(=O)N1CCC[C@H]1C(=O)N[C@@H](CCC(N)=O)C(=O)N[C@H](C(=O)N[C@@H](Cc1c[nH]c2ccccc12)C(N)=O)[C@@H](C)O)[C@@H](C)CC)C(C)C)[C@@H](C)O", "note": "[compound 184] (H-GCRTGTCTVQRLAHQIYQFTDKFKDNVAPRSKISPQTW-NH2; disulfide 2-7; N-terminus assumed)", "values": [
      {"measurement": "Max ThT signal (%)", "setting": "[1]", "value": 0.800, "unit": "%"},
      {"measurement": "EC50", "setting": "[2]", "value": 90, "unit": "pM"}
    ]},
    {"smiles": "CC[C@H](C)[C@H](NC(=O)[C@H](CC(N)=O)NC(=O)[C@H](CO)NC(=O)[C@H](CCCNC(=N)N)NC(=O)[C@@H]1CCCN1C(=O)[C@H](C)NC(=O)[C@@H](NC(=O)[C@H](CC(N)=O)NC(=O)[C@H](CC(=O)O)NC(=O)[C@H](CCCCN)NC(=O)[C@H](CC(=O)O)NC(=O)[C@H](CCCCN)NC(=O)[C@H](CC(=O)O)NC(=O)[C@@H](NC(=O)[C@H](Cc1ccccc1)NC(=O)[C@H](CCC(N)=O)NC(=O)[C@H](Cc1ccc(O)cc1)NC(=O)[C@@H](NC(=O)[C@H](CCC(N)=O)NC(=O)[C@H](Cc1c[nH]cn1)NC(=O)[C@H](C)NC(=O)[C@H](CC(C)C)NC(=O)[C@H](CCCNC(=N)N)NC(=O)[C@H](CCC(N)=O)NC(=O)[C@@H](NC(=O)[C@@H](NC(=O)[C@@H]1CSSC[C@H](NC(=O)CN)C(=O)N[C@@H](CCCNC(=N)N)C(=O)N[C@@H]([C@@H](C)O)C(=O)NCC(=O)N[C@@H]([C@@H](C)O)C(=O)N1)[C@@H](C)O)C(C)C)[C@@H](C)CC)[C@@H](C)O)C(C)C)C(=O)NCC(=O)N1CCC[C@H]1C(=O)N[C@@H](CCC(N)=O)C(=O)NCC(=O)N[C@@H](Cc1ccc(O)cc1)C(N)=O", "note": "[compound 191] (H-GCRTGTCTVQRLAHQIYQFTDKDKDNVAPRSNIGPQGY-NH2; disulfide 2-7; N-terminus assumed)", "values": [
      {"measurement": "Max ThT signal (%)", "setting": "[1]", "value": 6.300, "unit": "%"},
      {"measurement": "EC50", "setting": "[2]", "value": 98, "unit": "pM"}
    ]}
  ]
}
